Where two headings read alike, the source gives them in different places.
Tested on: dentine-pulp complex of rats
Description: The objective of this study was to check the inflammatory response of the pulp tissue and dentine tissue formation in rats after the use of composites made from hydroxiapatite as compared to the use of […] (CETEA 143/04). The composites were prepared and sterilized with ethylene oxide, following the procedures described previously. 36 six-week-old rats (Rattus norvergicus) of the Wistar lineage, weighing between 250 and 300g were used in this investigation.
The animals were placed in […] groups: (1) Calcium hydroxide; (2) Bioceramics HA and PLGA; (3) Negative control within four periods of time (1, 7. 15 and 30 days). The animals received an intraperitoneal anesthetic injection of 10 ml Ketamine 10% and 7.5 ml Xilazine 10% (body weight: 0.1ml/100g).
A cavity in the first upper molar oclussal face of the animals was made using a spherical drill n. 1/4 (ISO Maillefer), in total isolation, with water refrigeration and low rotation, keeping the animal in adequate equipment. No additional retention was supplied for the preparation of the cavity. Cavities and exposures were carefully cleaned with cotton balls and distilled water during four minutes. After being sacrificed, the animals underwent the histological processing of their teeth performed with the use of hematoxilin-eosin followed by a qualitative and quantitative histological analysis. The data was subjected to a ANOVA Test statistical analysis. The dentine bridge was measured with a 60-micrometer reticle.

## [Ca+2].[OH-].[OH-] [group (1), Calcium hydroxide]
After seven days
  inflammatory response of the pulp tissue: necrosed areas and a mild acute inflammatory process
From the fourteenth day on
  inflammatory response of the pulp tissue: mild chronic infiltrate
onset, periods 1, 7, 15 and 30 days
  formation of hard tissue: around the thirtieth day
